Measured values: patent publication US20230265151A1, “GIP/GLP1 CO-AGONIST COMPOUNDS” (priority 2020, published 2023)
Read-outs that look alike come from different tables or passages of the source.

Columns and labels:
Assay type in all cases: cell-based
hGLP-1R = hGLP-1R (Homo sapiens, UniProt P43220); test: Functional cAMP formation (HTRF) in HEK-293 clonal cells expressing hGLP-1R, 0.1% bovine casein, without or with 1.0% human serum albumin; parameters: expressed in transfected cells; conditions: percent of maximal response to GLP-1(7-36)NH2
Chain of hGLP-1R (P43220 24-463): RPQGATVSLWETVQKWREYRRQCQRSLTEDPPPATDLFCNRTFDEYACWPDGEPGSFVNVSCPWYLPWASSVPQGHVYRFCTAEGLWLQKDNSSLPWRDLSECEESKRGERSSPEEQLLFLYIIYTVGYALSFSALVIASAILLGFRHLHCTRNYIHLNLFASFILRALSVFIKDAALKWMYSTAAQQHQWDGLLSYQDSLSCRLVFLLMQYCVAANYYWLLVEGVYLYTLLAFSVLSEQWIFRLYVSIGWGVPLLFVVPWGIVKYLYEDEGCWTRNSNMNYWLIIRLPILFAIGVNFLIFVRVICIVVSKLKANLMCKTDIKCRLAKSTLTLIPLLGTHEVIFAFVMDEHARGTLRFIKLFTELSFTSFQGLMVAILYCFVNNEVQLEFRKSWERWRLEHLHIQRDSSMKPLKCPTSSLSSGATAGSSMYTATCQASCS
Experimental: (§1) After a 30-min incubation at 37° C., the resulting increase in intracellular cAMP is quantitatively determined using a CisBio cAMP Dynamic 2 HTRF Assay Kit (62AM4PEJ). Briefly, cAMP levels within the cell are detected by adding the cAMP-d2 conjugate in cell lysis buffer (10 µL) followed by the antibody anti-cAMP-Eu^3+-Cryptate, also in cell lysis buffer (10 µL). The resulting competitive assay is incubated for at least 60 min at room temperature, and then is detected using a PerkinElmer Envision® instrument with excitation at 320 nm and emission at 665 nm and 620 nm. Envision units (emission at 665 nm/620 nm* 10,000) are inversely proportional to the amount of cAMP present and are converted to nM cAMP per well us-ing a cAMP standard curve. […] A relative EC50 value and percent top (Emax) are derived by non-linear regression analysis using the percent maximal response vs. the concentration of peptide added, fitted to a four-parameter logistic equation.

hGIPR = target: T1, hGIPR (Homo sapiens, UniProt P48546); test: Functional cAMP formation (HTRF) in HEK-293 clonal cells expressing hGIPR, 0.1% bovine casein, without or with 1.0% human serum albumin
T1 construct: expressed in transfected cells
T1 sequence (P48546 22-466): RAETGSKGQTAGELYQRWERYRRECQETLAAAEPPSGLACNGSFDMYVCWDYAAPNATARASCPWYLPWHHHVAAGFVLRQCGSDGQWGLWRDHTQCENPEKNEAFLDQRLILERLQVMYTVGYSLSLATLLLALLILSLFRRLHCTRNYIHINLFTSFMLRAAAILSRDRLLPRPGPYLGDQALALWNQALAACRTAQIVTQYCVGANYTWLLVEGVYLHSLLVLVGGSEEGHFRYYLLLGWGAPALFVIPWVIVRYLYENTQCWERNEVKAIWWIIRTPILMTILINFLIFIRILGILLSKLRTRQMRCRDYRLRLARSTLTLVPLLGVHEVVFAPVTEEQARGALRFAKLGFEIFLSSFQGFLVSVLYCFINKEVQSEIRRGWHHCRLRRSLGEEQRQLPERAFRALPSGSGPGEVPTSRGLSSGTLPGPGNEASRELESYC
Experimental: as §1

hGCGR = target: T2, hGCGR (Homo sapiens, UniProt P47871); test: Functional cAMP formation (HTRF) in HEK-293 clonal cells expressing hGCGR, 0.1% bovine casein, without or with 1.0% human serum albumin; conditions: geometric mean, read-out: hGCGR EC50, nM (SEM, n)
T2 construct: expressed in transfected cells
T2 sequence (P47871 26-477): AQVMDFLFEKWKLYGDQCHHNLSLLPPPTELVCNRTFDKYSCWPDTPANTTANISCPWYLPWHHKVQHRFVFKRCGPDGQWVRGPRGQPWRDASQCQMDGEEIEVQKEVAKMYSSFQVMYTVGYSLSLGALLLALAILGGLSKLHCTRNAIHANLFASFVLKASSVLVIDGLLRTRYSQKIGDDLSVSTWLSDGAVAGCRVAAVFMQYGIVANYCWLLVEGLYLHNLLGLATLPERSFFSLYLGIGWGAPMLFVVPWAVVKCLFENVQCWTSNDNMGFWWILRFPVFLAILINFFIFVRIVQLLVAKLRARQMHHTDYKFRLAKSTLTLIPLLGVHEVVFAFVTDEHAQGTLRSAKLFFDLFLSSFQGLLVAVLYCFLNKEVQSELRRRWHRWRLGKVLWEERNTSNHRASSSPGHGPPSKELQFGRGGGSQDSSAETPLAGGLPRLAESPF
Experimental: as §1

[1] = cAMP, incubated at 37° C., 0.1% bovine casein (no human serum albumin)
[2] = HEK293, 0.1% bovine casein and 1.0% human serum albumin, 37° C., percent of maximal response to GIP(1-42)NH2, read-out: hGIPR Emax, % ± SEM

SMILES: CC[C@H](C)[C@H](NC(=O)[C@H](CC(C)C)NC(=O)[C@](C)(Cc1ccc(O)cc1)NC(=O)[C@@H](CCC(=O)O)NC(=O)[C@@H](NC(=O)[C@H](Cc1ccccc1)NC(=O)[C@H](CCCN)NC(=O)C(C)(C)NC(=O)[C@H](CCC(N)=O)NC(=O)[C@H](C)NC(=O)[C@H](CCCCNC(=O)COCCOCCNC(=O)COCCOCCNC(=O)CC[C@H](NC(=O)CCCCCCCCCOc1ccc(C(=O)O)cc1)C(=O)O)NC(=O)[C@H](CCCN)NC(=O)[C@H](CC(=O)O)NC(=O)[C@H](CC(C)C)NC(=O)[C@](C)(CC(C)C)NC(=O)[C@@H](NC(=O)C(C)(C)NC(=O)[C@H](Cc1ccncc1)NC(=O)[C@H](CC(=O)O)NC(=O)[C@H](CO)NC(=O)[C@@H](NC(=O)[C@](C)(Cc1ccccc1F)NC(=O)[C@@H](NC(=O)CNC(=O)[C@H](CCC(=O)O)NC(=O)C(C)(C)NC(=O)[C@@H](N)Cc1ccc(O)cc1)[C@@H](C)O)[C@@H](C)O)[C@@H](C)CC)[C@@H](C)CC)C(=O)N[C@@H](CCCCNC(=O)COCCOCCNC(=O)COCCOCCNC(=O)CC[C@H](NC(=O)CCCCCCCCCOc1ccc(C(=O)O)cc1)C(=O)O)C(=O)NCC(=O)NCC(=O)N1CCC[C@H]1C(=O)N[C@@H](CO)C(=O)N[C@@H](CO)C(=O)NCC(=O)N[C@@H](C)C(=O)N1CCC[C@H]1C(=O)N1CCC[C@H]1C(=O)N1CCC[C@H]1C(=O)N[C@@H](CO)C(N)=O [Example 351]
- Emax (hGLP-1R; HEK293, read-out: hGLP-1R Emax, % ± SEM, cAMP, 37° C., 0.1% bovine casein and 1.0% human serum albumin): 91%
- Emax (hGLP-1R; HEK293, read-out: hGLP-1R Emax, % ± SEM, cAMP, 37° C., 0.1% bovine casein, arithmetic mean): 100%
- Emax (hGIPR; HEK293, read-out: hGIPR Emax, % ± SEM, cAMP, 37° C., 0.1% bovine casein and 1.0% human serum albumin, percent of maximal response to GIP(1-42)NH2): 67.9%

SMILES: CC[C@H](C)[C@H](NC(=O)[C@H](CC(C)C)NC(=O)[C@](C)(Cc1ccc(O)cc1)NC(=O)[C@@H](CCC(=O)O)NC(=O)[C@@H](NC(=O)[C@](C)(Cc1ccccc1)NC(=O)[C@H](CCC(=O)O)NC(=O)C(C)(C)NC(=O)[C@H](CCC(N)=O)NC(=O)[C@H](C)NC(=O)[C@H](CCCCNC(=O)COCCOCCNC(=O)COCCOCCNC(=O)CC[C@H](NC(=O)CCCCCCCCCCCCC(=O)O)C(=O)O)NC(=O)[C@H](CCCN)NC(=O)[C@H](CC(=O)O)NC(=O)[C@H](CC(C)C)NC(=O)[C@](C)(CC(C)C)NC(=O)[C@@H](NC(=O)[C@H](CO)NC(=O)[C@@H](NC(=O)[C@H](CC(=O)O)NC(=O)[C@H](CO)NC(=O)[C@@H](NC(=O)[C@](C)(Cc1ccccc1F)NC(=O)[C@@H](NC(=O)CNC(=O)[C@H](CCC(=O)O)NC(=O)C(C)(C)NC(=O)[C@@H](N)Cc1ccc(O)cc1)[C@@H](C)O)[C@@H](C)O)C(C)C)[C@@H](C)CC)[C@@H](C)CC)C(=O)N[C@@H](CCC(=O)O)C(=O)NCC(=O)NCC(=O)N[C@@H](CCCCNC(=O)COCCOCCNC(=O)COCCOCCNC(=O)CC[C@H](NC(=O)CCCCCCCCCCCCC(=O)O)C(=O)O)C(=O)N[C@@H](CO)C(=O)N[C@@H](CO)C(=O)NCC(=O)N[C@@H](C)C(=O)N1CCC[C@H]1C(=O)N1CCC[C@H]1C(=O)N1CCC[C@H]1C(=O)N[C@@H](CO)C(N)=O [Example 92]
- EC50 (hGCGR; 0.1% bovine casein and 1.0% human serum albumin, 37° C.): > 9950 nM
- EC50 (hGCGR; [1]): > 9950 nM

SMILES: CC[C@H](C)[C@H](NC(=O)[C@H](CC(C)C)NC(=O)[C@](C)(Cc1ccc(O)cc1)NC(=O)[C@@H](CCC(=O)O)NC(=O)[C@@H](NC(=O)[C@H](Cc1ccccc1)NC(=O)[C@H](CCC(=O)O)NC(=O)C(C)(C)NC(=O)[C@H](CCC(N)=O)NC(=O)[C@H](C)NC(=O)[C@H](CCCCNC(=O)[C@@H](N)CCCCNC(=O)CC[C@H](NC(=O)CC[C@H](NC(=O)CCCCCCCCCCCCC(=O)O)C(=O)O)C(=O)O)NC(=O)[C@H](CCCN)NC(=O)[C@H](CC(=O)O)NC(=O)[C@H](CC(C)C)NC(=O)[C@](C)(CC(C)C)NC(=O)[C@@H](NC(=O)[C@H](CO)NC(=O)[C@H](Cc1ccncc1)NC(=O)[C@H](CC(=O)O)NC(=O)[C@H](CO)NC(=O)[C@@H](NC(=O)[C@](C)(Cc1ccccc1F)NC(=O)[C@@H](NC(=O)CNC(=O)[C@H](CCC(=O)O)NC(=O)C(C)(C)NC(=O)[C@@H](N)Cc1ccc(O)cc1)[C@@H](C)O)[C@@H](C)O)[C@@H](C)CC)[C@@H](C)CC)C(=O)N[C@@H](CCC(=O)O)C(=O)NCC(=O)NCC(=O)N[C@@H](CCCCNC(=O)[C@@H](N)CCCCNC(=O)CC[C@H](NC(=O)CC[C@H](NC(=O)CCCCCCCCCCCCC(=O)O)C(=O)O)C(=O)O)C(=O)N[C@@H](CO)C(=O)N[C@@H](CO)C(=O)NCC(=O)N[C@@H](C)C(=O)N1CCC[C@H]1C(=O)N1CCC[C@H]1C(=O)N1CCC[C@H]1C(=O)N[C@@H](CO)C(N)=O [Example 39]
- Emax (hGIPR; [2]): 86.8 ± 3.27%
- Emax (hGIPR; HEK293, percent of maximal response to GIP(1-42)NH2, 37° C., 0.1% bovine casein, arithmetic mean, read-out: hGIPR Emax, % ± SEM): 96.5 ± 1.44%

SMILES: CC[C@H](C)[C@H](NC(=O)[C@H](CC(C)C)NC(=O)[C@](C)(Cc1ccc(O)cc1)NC(=O)[C@@H](CCC(=O)O)NC(=O)[C@@H](NC(=O)[C@H](Cc1ccccc1)NC(=O)[C@H](CCC(=O)O)NC(=O)C(C)(C)NC(=O)[C@H](CCC(N)=O)NC(=O)[C@H](C)NC(=O)[C@H](CCCCNC(=O)COCCOCCNC(=O)COCCOCCNC(=O)CC[C@H](NC(=O)CCCCCCCCCCCCC(=O)O)C(=O)O)NC(=O)[C@H](CCCN)NC(=O)[C@H](CC(=O)O)NC(=O)[C@H](CC(C)C)NC(=O)[C@](C)(CC(C)C)NC(=O)[C@@H](NC(=O)[C@H](CO)NC(=O)[C@H](Cc1csc2ccccc12)NC(=O)[C@H](CC(=O)O)NC(=O)[C@H](CO)NC(=O)[C@@H](NC(=O)[C@](C)(Cc1ccccc1F)NC(=O)[C@@H](NC(=O)CNC(=O)[C@H](CCC(=O)O)NC(=O)C(C)(C)NC(=O)[C@@H](N)Cc1ccc(O)cc1)[C@@H](C)O)[C@@H](C)O)[C@@H](C)CC)[C@@H](C)CC)C(=O)N[C@@H](CCC(=O)O)C(=O)NCC(=O)NCC(=O)N[C@@H](CCCCNC(=O)COCCOCCNC(=O)COCCOCCNC(=O)CC[C@H](NC(=O)CCCCCCCCCCCCC(=O)O)C(=O)O)C(=O)N[C@@H](CO)C(=O)N[C@@H](CO)C(=O)NCC(=O)N[C@@H](C)C(=O)N1CCC[C@H]1C(=O)N1CCC[C@H]1C(=O)N1CCC[C@H]1C(=O)N[C@@H](CO)C(N)=O [Example 142]
- EC50 (hGCGR; [1]): > 9950 nM

SMILES: CC[C@H](C)[C@H](NC(=O)[C@H](CC(C)C)NC(=O)[C@](C)(Cc1ccc(O)cc1)NC(=O)[C@@H](CCC(=O)O)NC(=O)[C@@H](NC(=O)[C@H](Cc1ccccc1)NC(=O)[C@H](CCC(=O)O)NC(=O)C(C)(C)NC(=O)[C@H](CCC(N)=O)NC(=O)[C@H](C)NC(=O)[C@H](CCCCNC(=O)COCCOCCNC(=O)COCCOCCNC(=O)CCCCCCCCCCCCC(=O)O)NC(=O)[C@H](CCCN)NC(=O)[C@H](CC(=O)O)NC(=O)[C@H](CC(C)C)NC(=O)[C@](C)(CC(C)C)NC(=O)[C@@H](NC(=O)[C@H](CO)NC(=O)[C@H](Cc1ccc2ccccc2c1)NC(=O)[C@H](CC(=O)O)NC(=O)[C@H](CO)NC(=O)[C@@H](NC(=O)[C@](C)(Cc1ccccc1F)NC(=O)[C@@H](NC(=O)CNC(=O)[C@H](CCC(=O)O)NC(=O)C(C)(C)NC(=O)[C@@H](N)Cc1ccc(O)cc1)[C@@H](C)O)[C@@H](C)O)[C@@H](C)CC)[C@@H](C)CC)C(=O)N[C@@H](CCC(=O)O)C(=O)NCC(=O)NCC(=O)N1CCC[C@H]1C(=O)N[C@@H](CO)C(=O)N[C@@H](CO)C(=O)NCC(=O)N[C@@H](C)C(=O)N1CCC[C@H]1C(=O)N1CCC[C@H]1C(=O)N1CCC[C@H]1C(=O)N[C@@H](CO)C(=O)N[C@@H](CCCCNC(=O)COCCOCCNC(=O)COCCOCCNC(=O)CCCCCCCCCCCCC(=O)O)C(N)=O [Example 257]
- Emax (hGLP-1R; HEK293, cAMP, 37° C., 0.1% bovine casein, arithmetic mean, read-out: hGLP-1R Emax, % ± SEM): 82%
- Emax (hGIPR; [2]): 72.2%
- Emax (hGIPR; HEK293, cAMP, 37° C., 0.1% bovine casein, percent of maximal response to GIP(1-42)NH2, arithmetic mean, read-out: hGIPR Emax, % ± SEM): 90.3%
